For one assay, the target named is T1, FES (Homo sapiens, UniProt P07332).
T1 construct: purchased Carna Biosciences
In words: Kinase panel profiling at 1 µmol/L (mobility shift assay, Carna). Type of assay: biochemical. As to conditions: 1 µmol/L of BTK inhibitor.

Another assay addresses T2, PKCι (Homo sapiens, UniProt P41743).
T2 construct: purchased Carna Biosciences
T2 sequence (P41743 1-596): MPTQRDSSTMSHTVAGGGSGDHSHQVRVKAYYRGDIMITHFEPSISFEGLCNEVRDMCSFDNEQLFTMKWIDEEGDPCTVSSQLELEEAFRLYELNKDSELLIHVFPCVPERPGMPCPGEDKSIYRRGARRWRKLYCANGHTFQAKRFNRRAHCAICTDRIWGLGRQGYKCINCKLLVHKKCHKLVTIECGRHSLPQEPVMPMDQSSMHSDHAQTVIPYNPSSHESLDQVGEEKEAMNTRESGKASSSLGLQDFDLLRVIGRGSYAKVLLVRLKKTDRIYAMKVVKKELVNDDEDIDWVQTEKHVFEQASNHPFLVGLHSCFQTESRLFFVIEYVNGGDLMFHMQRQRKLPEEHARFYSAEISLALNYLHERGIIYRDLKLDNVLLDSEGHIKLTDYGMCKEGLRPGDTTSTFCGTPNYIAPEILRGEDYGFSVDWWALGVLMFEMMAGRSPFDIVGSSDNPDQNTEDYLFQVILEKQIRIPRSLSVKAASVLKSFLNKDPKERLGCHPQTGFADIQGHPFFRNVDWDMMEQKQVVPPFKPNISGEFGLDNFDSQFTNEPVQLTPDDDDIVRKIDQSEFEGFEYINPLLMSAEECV
Described as above. Type of assay: biochemical. To be noted: 1 µmol/L of BTK inhibitor.

The target of the next assay is T3, PIM1 (Homo sapiens, UniProt P11309).
T3 construct: purchased Carna Biosciences
T3 sequence (P11309 whole entry): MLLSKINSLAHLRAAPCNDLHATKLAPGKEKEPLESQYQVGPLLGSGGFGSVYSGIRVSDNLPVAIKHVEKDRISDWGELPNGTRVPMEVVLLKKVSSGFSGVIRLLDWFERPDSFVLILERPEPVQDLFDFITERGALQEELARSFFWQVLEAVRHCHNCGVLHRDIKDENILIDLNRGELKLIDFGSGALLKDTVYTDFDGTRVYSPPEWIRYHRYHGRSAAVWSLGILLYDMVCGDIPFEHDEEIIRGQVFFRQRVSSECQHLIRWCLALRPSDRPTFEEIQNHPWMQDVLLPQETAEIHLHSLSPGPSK
The description is as above. Type of assay: biochemical. As to conditions: 1 µmol/L of BTK inhibitor.

The next assay addresses T4, SRM (Homo sapiens, UniProt Q9H3Y6).
T4 construct: purchased Carna Biosciences
The assay is described as above. Type of assay: biochemical. As to conditions: 1 µmol/L of BTK inhibitor.

For a further assay, the target named is T5, SYK (Homo sapiens, UniProt P43405).
T5 construct: purchased Carna Biosciences
The description is as above. Type of assay: biochemical. As to conditions: 1 µmol/L of BTK inhibitor.

For a further assay, the target named is T6, FYN [isoform a] (Homo sapiens, UniProt P06241).
T6 construct: purchased Carna Biosciences
The description is as above. As to conditions: 1 µmol/L of BTK inhibitor. Type of assay: biochemical.

The target of the next assay is T7, PAK1 (Homo sapiens, UniProt Q13153).
T7 construct: purchased Carna Biosciences
The description is as above. As to conditions: 1 µmol/L of BTK inhibitor. Type of assay: biochemical.

In another assay the target is FGFR1 (Homo sapiens, UniProt P11362). In words: Kinase enzyme activity assay (mobility shift assay, Carna). To be noted: for Percentage inhibition of kinase enzyme activity: FGFR1, 1 µmol/L of BTK inhibitor.
The next assay concerns the target BRK (Homo sapiens, UniProt Q13882). In words: Kinase panel profiling at 1 µmol/L (mobility shift assay, Carna). As to conditions: for Percentage inhibition of kinase enzyme activity: BRK, 1 µmol/L of BTK inhibitor.
The next assay addresses T8, FYN [isoform b] (Homo sapiens, UniProt P06241).
T8 construct: purchased Carna Biosciences
Described as above. As to conditions: 1 µmol/L of BTK inhibitor. Type of assay: biochemical.

The target of another assay is T9, MELK (Homo sapiens, UniProt Q14680).
T9 construct: purchased Carna Biosciences
T9 sequence (Q14680 whole entry): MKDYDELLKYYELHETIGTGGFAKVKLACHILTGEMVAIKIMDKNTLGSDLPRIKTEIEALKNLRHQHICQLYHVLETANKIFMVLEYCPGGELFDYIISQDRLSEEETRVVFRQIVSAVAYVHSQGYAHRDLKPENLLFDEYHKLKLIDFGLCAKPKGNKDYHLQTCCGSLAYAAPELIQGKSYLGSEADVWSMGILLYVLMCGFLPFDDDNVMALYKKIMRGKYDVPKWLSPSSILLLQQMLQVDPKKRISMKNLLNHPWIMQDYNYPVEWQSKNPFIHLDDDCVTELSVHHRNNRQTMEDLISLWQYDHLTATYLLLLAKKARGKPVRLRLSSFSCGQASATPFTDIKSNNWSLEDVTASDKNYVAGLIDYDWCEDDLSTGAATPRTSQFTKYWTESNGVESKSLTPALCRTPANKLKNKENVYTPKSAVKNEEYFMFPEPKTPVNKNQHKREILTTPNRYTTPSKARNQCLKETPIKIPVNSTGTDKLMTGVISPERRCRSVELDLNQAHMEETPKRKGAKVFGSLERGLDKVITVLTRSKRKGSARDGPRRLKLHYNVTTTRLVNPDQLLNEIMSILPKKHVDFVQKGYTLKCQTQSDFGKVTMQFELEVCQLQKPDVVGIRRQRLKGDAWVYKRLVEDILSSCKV
The assay is described as above. Type of assay: biochemical. As to conditions: 1 µmol/L of BTK inhibitor.

Another assay deals with T10, LCK (Homo sapiens, UniProt P06239).
T10 construct: purchased Carna Biosciences
The description is as above. Type of assay: biochemical. As to conditions: 1 µmol/L of BTK inhibitor.

The next assay addresses T11, PKD2 (Homo sapiens, UniProt Q9BZL6).
T11 construct: purchased Carna Biosciences
T11 sequence (Q9BZL6 1-878): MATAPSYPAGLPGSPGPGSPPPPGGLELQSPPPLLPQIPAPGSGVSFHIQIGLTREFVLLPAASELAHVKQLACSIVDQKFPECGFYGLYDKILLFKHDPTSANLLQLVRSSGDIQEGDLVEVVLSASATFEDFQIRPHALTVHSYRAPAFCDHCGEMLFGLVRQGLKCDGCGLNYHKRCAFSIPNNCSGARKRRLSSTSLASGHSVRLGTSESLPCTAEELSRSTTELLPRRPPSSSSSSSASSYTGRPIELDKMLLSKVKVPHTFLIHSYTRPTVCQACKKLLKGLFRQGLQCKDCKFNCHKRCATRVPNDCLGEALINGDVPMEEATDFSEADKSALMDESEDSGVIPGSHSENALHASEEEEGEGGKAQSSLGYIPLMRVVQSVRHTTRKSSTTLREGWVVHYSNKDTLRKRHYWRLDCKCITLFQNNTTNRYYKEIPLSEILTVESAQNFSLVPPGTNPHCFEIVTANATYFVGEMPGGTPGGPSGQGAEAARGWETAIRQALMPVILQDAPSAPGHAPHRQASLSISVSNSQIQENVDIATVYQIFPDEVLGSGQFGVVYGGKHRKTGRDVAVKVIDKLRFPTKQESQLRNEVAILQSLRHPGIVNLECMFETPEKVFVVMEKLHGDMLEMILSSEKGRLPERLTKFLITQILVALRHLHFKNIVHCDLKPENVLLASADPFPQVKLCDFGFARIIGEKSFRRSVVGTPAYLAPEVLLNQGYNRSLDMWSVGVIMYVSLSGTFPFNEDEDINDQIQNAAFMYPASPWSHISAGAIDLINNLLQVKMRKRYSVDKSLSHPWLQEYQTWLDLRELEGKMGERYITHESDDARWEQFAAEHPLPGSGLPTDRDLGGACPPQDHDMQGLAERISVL
Described as above. To be noted: 1 µmol/L of BTK inhibitor. Type of assay: biochemical.

The next assay deals with T12, PKR (Homo sapiens, UniProt P19525).
T12 construct: purchased Carna Biosciences
T12 sequence (P19525 whole entry): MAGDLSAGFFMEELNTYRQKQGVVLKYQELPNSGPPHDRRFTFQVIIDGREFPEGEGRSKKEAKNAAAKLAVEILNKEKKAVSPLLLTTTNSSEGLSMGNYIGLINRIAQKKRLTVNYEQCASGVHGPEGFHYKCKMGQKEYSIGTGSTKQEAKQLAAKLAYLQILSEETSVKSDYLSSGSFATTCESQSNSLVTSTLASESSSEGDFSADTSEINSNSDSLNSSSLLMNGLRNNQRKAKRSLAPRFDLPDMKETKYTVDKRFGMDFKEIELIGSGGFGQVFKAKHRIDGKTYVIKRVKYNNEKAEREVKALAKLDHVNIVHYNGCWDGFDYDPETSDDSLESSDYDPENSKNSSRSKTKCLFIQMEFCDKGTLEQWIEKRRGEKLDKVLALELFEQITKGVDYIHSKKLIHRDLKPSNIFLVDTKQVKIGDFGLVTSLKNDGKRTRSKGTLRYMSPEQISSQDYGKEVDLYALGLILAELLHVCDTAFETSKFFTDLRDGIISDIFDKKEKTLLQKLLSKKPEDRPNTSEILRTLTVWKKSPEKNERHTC
The description is as above. Type of assay: biochemical. As to conditions: 1 µmol/L of BTK inhibitor.

Another assay has as its target T13, BTK (Homo sapiens, UniProt Q06187).
T13 construct: purchased Carna Biosciences, Inc
In words: Kinase enzyme activity assay (mobility shift assay, Carna). Type of assay: biochemical. To be noted: for Percentage inhibition of kinase enzyme activity: BTK, 1 µmol/L of BTK inhibitor.

The next assay addresses T14, MET (Homo sapiens, UniProt P08581).
T14 construct: purchased Carna Biosciences
In words: Kinase panel profiling at 1 µmol/L (mobility shift assay, Carna). Type of assay: biochemical. To be noted: 1 µmol/L of BTK inhibitor.

T13 sequence (Q06187 whole entry): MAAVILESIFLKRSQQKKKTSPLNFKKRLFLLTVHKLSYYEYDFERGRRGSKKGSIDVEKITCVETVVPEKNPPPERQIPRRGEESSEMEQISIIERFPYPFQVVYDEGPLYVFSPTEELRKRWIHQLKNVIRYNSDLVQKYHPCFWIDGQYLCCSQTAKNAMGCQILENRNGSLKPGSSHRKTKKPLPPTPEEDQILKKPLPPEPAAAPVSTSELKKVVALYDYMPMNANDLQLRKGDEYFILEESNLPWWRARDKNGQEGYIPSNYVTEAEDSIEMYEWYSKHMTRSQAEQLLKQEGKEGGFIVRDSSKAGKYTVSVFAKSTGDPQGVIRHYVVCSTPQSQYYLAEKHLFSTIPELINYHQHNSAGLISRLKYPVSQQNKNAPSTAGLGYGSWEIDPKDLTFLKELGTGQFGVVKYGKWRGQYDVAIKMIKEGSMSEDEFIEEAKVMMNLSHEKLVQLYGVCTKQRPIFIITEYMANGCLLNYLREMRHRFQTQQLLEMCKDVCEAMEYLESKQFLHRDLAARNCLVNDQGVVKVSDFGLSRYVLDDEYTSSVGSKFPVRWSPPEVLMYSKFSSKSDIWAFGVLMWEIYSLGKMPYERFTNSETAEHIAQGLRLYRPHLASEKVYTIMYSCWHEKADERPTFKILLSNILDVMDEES
T8 sequence (P06241 1-534 isoform P06241-2): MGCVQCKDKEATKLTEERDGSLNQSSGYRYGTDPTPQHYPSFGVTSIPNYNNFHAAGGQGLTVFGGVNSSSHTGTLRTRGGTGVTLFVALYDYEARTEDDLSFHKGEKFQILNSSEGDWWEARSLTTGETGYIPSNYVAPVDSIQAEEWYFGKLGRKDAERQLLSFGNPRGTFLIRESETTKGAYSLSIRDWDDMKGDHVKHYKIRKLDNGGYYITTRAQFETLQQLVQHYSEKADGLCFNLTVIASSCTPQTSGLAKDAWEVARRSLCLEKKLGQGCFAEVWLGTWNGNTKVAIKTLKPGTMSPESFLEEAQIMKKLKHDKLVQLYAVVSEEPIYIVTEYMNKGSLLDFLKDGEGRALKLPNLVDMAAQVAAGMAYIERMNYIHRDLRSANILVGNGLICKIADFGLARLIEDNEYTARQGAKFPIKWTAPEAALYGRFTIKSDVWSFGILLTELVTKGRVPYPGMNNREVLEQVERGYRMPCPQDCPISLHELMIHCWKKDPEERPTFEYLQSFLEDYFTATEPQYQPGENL
BRK, sequence (Q13882 whole entry, canonical isoform): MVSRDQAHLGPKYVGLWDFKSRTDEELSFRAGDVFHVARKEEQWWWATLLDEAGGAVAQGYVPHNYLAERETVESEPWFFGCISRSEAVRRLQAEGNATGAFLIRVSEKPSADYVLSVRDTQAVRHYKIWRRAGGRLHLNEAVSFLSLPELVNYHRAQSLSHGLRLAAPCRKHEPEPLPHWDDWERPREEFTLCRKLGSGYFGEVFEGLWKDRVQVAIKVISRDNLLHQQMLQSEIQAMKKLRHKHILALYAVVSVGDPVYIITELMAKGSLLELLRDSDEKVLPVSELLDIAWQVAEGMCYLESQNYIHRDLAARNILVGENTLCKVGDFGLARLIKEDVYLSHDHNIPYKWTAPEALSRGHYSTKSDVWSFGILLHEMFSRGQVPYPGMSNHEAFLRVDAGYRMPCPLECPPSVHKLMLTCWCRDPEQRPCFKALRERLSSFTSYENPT
T14 sequence (P08581 25-1390): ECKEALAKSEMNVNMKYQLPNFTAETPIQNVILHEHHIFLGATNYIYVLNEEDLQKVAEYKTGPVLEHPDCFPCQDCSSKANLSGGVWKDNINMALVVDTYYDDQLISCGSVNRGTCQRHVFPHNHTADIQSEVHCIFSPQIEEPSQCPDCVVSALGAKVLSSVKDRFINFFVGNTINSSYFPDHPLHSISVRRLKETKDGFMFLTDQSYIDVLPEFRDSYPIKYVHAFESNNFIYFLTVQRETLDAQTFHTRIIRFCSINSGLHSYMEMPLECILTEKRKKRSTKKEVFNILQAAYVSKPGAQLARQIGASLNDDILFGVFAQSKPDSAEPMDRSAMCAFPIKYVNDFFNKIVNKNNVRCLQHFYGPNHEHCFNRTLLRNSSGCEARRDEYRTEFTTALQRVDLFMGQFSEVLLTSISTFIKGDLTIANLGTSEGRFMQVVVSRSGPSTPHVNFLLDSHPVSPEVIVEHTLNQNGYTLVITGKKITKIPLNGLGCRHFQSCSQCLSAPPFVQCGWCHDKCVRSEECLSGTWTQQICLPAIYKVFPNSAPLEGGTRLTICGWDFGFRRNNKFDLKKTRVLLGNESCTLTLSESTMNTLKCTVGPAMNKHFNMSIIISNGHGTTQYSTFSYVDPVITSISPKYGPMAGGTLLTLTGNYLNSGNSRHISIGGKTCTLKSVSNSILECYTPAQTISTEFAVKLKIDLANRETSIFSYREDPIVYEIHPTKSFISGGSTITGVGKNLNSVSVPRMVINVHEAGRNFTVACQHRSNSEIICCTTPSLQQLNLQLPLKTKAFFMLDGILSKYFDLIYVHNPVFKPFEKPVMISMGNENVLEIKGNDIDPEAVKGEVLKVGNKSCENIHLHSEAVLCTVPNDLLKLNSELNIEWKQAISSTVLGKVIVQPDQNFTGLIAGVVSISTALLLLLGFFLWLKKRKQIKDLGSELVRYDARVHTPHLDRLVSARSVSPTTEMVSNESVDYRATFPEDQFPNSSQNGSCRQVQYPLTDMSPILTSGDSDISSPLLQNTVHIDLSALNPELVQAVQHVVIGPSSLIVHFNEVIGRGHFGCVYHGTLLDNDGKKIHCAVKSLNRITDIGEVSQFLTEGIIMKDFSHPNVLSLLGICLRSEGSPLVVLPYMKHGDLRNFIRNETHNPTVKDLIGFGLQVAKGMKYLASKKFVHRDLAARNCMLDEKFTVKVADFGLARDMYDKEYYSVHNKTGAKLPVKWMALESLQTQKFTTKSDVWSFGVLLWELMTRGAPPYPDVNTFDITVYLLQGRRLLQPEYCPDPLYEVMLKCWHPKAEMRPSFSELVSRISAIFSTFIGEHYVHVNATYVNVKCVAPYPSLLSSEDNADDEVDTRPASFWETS
T4 sequence (Q9H3Y6 whole entry): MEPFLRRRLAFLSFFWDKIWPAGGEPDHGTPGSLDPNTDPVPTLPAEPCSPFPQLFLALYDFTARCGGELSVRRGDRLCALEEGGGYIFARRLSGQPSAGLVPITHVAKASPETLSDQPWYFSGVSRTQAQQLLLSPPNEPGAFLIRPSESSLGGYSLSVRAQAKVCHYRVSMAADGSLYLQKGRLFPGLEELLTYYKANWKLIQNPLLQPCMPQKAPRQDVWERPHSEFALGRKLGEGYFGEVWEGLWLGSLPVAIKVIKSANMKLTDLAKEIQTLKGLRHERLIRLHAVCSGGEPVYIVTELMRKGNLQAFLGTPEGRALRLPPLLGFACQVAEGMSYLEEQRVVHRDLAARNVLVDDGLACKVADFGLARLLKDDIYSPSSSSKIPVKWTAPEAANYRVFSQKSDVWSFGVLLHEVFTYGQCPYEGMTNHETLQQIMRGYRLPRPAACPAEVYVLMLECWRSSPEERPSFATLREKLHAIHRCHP

For `CC#CC(=O)N1CCC[C@H]1c1nc(-c2ccc(C(=O)Nc3ccccn3)cc2)c2c(N)nccn12` [acalabrutinib], the “Percentage inhibition of kinase enzyme activity” value (shortened to “Percentage inhibition”) at FES is -6.35%; on PKCι, -8.38%; on PIM1, -4.28%; at SRM it was 39.49%; on SYK, -19.36%; at FYN [isoform a], 5.84%. Moreover, the “Percentage inhibition” value on PAK1 is -0.37%; at FGFR1, -2.28%; at BRK, 51.05%; on FYN [isoform b], -1.25%; on MELK it was -0.54%; on LCK it was 6.84%. Further, the “Percentage inhibition” value is recorded as -9.88% at PKD2, 7.19% at PKR, 94.95% on BTK and 3.91% on MET.
Regarding `C=CC(=O)N1CCC[C@@H](n2nc(-c3ccc(Oc4ccccc4)cc3)c3c(N)ncnc32)C1` [ibrutinib], the “Percentage inhibition” value at FES was 0.68%; on PKCι, 2.23%; on SRM, 102.20%; on SYK it was -19.83%; on FYN [isoform a], 92.75%; on PAK1 it was 6.57%. Besides, the “Percentage inhibition” value is given as 70.87% on FGFR1; 102.78% on BRK; 86.77% at FYN [isoform b]; 8.08% on MELK; 100.25% on LCK; -3.20% on PKD2. Further, the “Percentage inhibition” value is 5.63% on PKR and 11.55% on MET.
As for `O=C(c1ccc(Oc2ccccc2)cc1Cl)c1c[nH]c2ncnc(N[C@@H]3CC[C@@H](CO)OC3)c12` [nemtabrutinib], the “Percentage inhibition” value at FES is listed as 93.26%; on PKCι it was -1.29%; at PIM1 it was -15.07%; at SRM, 102.16%; at SYK, 3.99%; on PAK1, 79.33%. The “Percentage inhibition” value on FGFR1 was found to be 46.81%; at MELK, 81.25%; on LCK, 70.86%; on PKD2, 7.65%; on PKR, 29.57%; on BTK it was 97.07%. In addition, on MET, the “Percentage inhibition” value turned out to be 42.98%. Also, at FGFR1, the 50% inhibitory concentration (IC50) was found to be 134 nM.
`COc1ccc(F)cc1C(=O)NCc1ccc(-c2nn([C@@H](C)C(F)(F)F)c(N)c2C(N)=O)cc1` [pirtobrutinib]: the “Percentage inhibition” value on FES is listed as 11.87%; on PKCι, 0.51%; on PIM1, 3.95%; at SRM, 18.61%; at SYK, -13.08%; at FYN [isoform a] it was 12.27%. Moreover, the “Percentage inhibition” value was 5.73% at PAK1; 3.30% at FGFR1; 89.81% at BRK; 15.19% at FYN [isoform b]; -5.13% on MELK; 30.64% on LCK. Besides, the “Percentage inhibition” value on PKD2 is reported as -6.50%; at PKR, 7.39%; on BTK, 98.09%; at MET, 1.44%. In addition, on BRK (read-out: Inhibition of BRK), the inhibition at 1 µM was > 75%. In addition, the IC50 on BTK (K M,bin ATP) was 2.3 nM.
As to `C=CC(=O)N1CCC([C@@H]2CCNc3c(C(N)=O)c(-c4ccc(Oc5ccccc5)cc4)nn32)CC1` [zanubrutinib], the “Percentage inhibition” value is listed as 4.53% at FES; 57.79% at SRM; -5.28% at FGFR1; 98.97% at BRK; 0.21% at LCK; 1.41% on MET.

Values taken from article PMC12586182 (Frontiers in Oncology, 2025).
